Source: patent publication US20240174618A1, “SUBSTITUTED (2-HETEROARYLOXYPHENYL)SULFONATES, SALTS THEREOF AND THEIR USE AS HERBICIDAL AGENTS” (Bayer Aktiengesellschaft, priority 2021, published 2024)

What was measured:
Assay type in all cases: in vivo
Poa annua (POAAN) = assay: A. Herbicidal pre-emergence efficacy, POAAN
Procedure, shortened: (§1)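 Pre-emergence soil-surface spray in sandy loam pots, WP/EC in water plus 0.5% additive, 600 L/ha. Visual % damage rating after about 3 weeks in greenhouse vs. untreated; 0% = control-like, 100% = dead plants. Rates up to 1280 g/ha.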

[1] = system: Abutilon theophrasti (ABUTH); assay: E. Herbicidal post-emergence efficacy, ABUTH
Procedure, shortened: (§2)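 Greenhouse post-emergence spray, one-leaf stage (2–3 wk after sowing, sandy loam); WP/EC formulation, aqueous + 0.5% additive, 600 l/ha water; rates 320 g/ha or less. Visual rating ~3 wk later vs untreated; 0% = control-like, 100% = dead.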

[2] = system: Alopecurus myosuroides (ALOMY); assay: A. Herbicidal pre-emergence efficacy, ALOMY; conditions: scored visually after about 3 weeks vs untreated controls
Procedure, shortened: as §1

[3] = system: Echinochloa crus-galli (ECHCG); assay: A. Herbicidal pre-emergence efficacy, ECHCG; conditions: scored visually after about 3 weeks vs untreated controls
Procedure, shortened: as §1

[4] = system: Abutilon theophrasti (ABUTH); assay: B. Herbicidal post-emergence efficacy, ABUTH; conditions: rated visually after about 3 weeks
Procedure, shortened: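 Readout: visual % kill vs untreated, ~3 wk post-spray. Plants in sandy loam pots, treated at one-leaf stage; spray = WP/EC in water + 0.5% additive, 600 L/ha, dose ≤1280 g/ha.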

[5] = system: Amaranthus retroflexus (AMARE); assay: C. Herbicidal pre-emergence efficacy, AMARE; conditions: scored after about 3 weeks
Procedure, shortened: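 Pre-emergence test: formulated compounds sprayed as aqueous suspension or emulsion with 0.5% additive at 600 l/ha onto soil covering sown seeds, at rates corresponding to 320 g/ha or less. After about 3 weeks in greenhouse, efficacy scored visually as percent versus untreated controls (100% = plants dead).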

Viola tricolor (VIOTR) = assay: E. Herbicidal post-emergence efficacy, VIOTR
Procedure, shortened: as §2

Veronica persica (VERPE) = assay: E. Herbicidal post-emergence efficacy, VERPE
Procedure, shortened: as §2

SMILES	Pre-emergence efficacy against POAAN (Poa annua (POAAN); dosage 80 g/ha)	Pre-emergence efficacy against POAAN (Poa annua (POAAN); dosage 320 g/ha)	Pre-emergence efficacy against POAAN (Poa annua (POAAN); dosage 1280 g/ha)	Post-emergence efficacy against ABUTH in % ([1]; application rate 320 g/ha)	Pre-emergence efficacy against ALOMY ([2]; 320 g/ha)	Pre-emergence efficacy against ALOMY ([2]; 1280 g/ha)	Pre-emergence efficacy against ECHCG ([3]; 80 g/ha)	Pre-emergence efficacy against ECHCG ([3]; 320 g/ha)	Pre-emergence efficacy against ECHCG ([3]; 1280 g/ha)	Post-emergence efficacy against ABUTH in % ([4]; 80 g/ha)	Post-emergence efficacy against ABUTH in % ([4]; 320 g/ha)	Post-emergence efficacy against ABUTH in % ([4]; 1280 g/ha)	Pre-emergence efficacy against AMARE ([5]; 80 g/ha)	Pre-emergence efficacy against AMARE ([5]; 320 g/ha)	Post-emergence efficacy against VIOTR in % (Viola tricolor (VIOTR); application rate 80 g/ha)	Post-emergence efficacy against VIOTR in % (Viola tricolor (VIOTR); application rate 320 g/ha)	Post-emergence efficacy against VERPE in % (Veronica persica (VERPE); application rate 80 g/ha)	Post-emergence efficacy against VERPE in % (Veronica persica (VERPE); application rate 320 g/ha)	Post-emergence efficacy against ABUTH in % ([1]; application rate 80 g/ha)
O=S(=O)(CCC(F)(F)F)Oc1c(F)cccc1Oc1ncc(F)cn1 [Example I-47]	100%	100%	100%	100%	100%	100%	100%	100%	100%	90%	100%	100%	100%	100%	100%	100%	100%	100%	–
O=S(=O)(CCC(F)(F)F)Oc1c(F)cccc1Oc1ncc(Cl)cn1 [Example I-48]	90%	100%	100%	100%	90%	90%	90%	90%	90%	90%	90%	90%	100%	100%	100%	100%	100%	100%	90%
O=S(=O)(CCCC(F)(F)F)Oc1c(F)cccc1Oc1ncc(Cl)cn1 [Example I-49]	90%	100%	100%	80%	–	90%	90%	90%	90%	90%	90%	90%	100%	100%	100%	100%	100%	100%	80%
O=S(=O)(CC1CC(F)(F)C1)Oc1c(F)cccc1Oc1ncc(Cl)cn1 [Example I-53]	100%	100%	100%	100%	–	100%	100%	100%	100%	90%	90%	90%	100%	100%	100%	100%	100%	100%	100%
O=S(=O)(CCCC(F)F)Oc1c(F)cccc1Oc1ncc(Cl)cn1 [Example I-56]	90%	100%	100%	100%	90%	100%	100%	100%	100%	90%	90%	90%	100%	100%	100%	100%	100%	100%	–
O=S(=O)(CCCC(F)(F)C(F)(F)F)Oc1c(F)cccc1Oc1ncc(Cl)cn1 [Example I-68]	–	90%	100%	90%	–	90%	–	90%	100%	100%	100%	100%	100%	100%	100%	100%	100%	100%	–
Cc1cccc(Oc2ncc(Cl)cn2)c1OS(=O)(=O)CC1CC(F)(F)C1 [Example I-74]	–	100%	100%	90%	–	90%	–	90%	100%	100%	100%	100%	90%	100%	100%	100%	90%	100%	–
